ChEMBL document CHEMBL5653631, “A Potent and Selective ULK1 Inhibitor Suppresses Autophagy and Sensitizes Cancer Cells to Nutrient Stress” (iScience, 2018)

What was measured:
[1] = target: T1, Serine/threonine-protein kinase TAO1 (Homo sapiens) (UniProt Q7L7X3); assay: Inhibition of human recombinant TAO1 at 500 nM in presence of ATP by radiometric assay relative to control
T1 sequence (whole entry): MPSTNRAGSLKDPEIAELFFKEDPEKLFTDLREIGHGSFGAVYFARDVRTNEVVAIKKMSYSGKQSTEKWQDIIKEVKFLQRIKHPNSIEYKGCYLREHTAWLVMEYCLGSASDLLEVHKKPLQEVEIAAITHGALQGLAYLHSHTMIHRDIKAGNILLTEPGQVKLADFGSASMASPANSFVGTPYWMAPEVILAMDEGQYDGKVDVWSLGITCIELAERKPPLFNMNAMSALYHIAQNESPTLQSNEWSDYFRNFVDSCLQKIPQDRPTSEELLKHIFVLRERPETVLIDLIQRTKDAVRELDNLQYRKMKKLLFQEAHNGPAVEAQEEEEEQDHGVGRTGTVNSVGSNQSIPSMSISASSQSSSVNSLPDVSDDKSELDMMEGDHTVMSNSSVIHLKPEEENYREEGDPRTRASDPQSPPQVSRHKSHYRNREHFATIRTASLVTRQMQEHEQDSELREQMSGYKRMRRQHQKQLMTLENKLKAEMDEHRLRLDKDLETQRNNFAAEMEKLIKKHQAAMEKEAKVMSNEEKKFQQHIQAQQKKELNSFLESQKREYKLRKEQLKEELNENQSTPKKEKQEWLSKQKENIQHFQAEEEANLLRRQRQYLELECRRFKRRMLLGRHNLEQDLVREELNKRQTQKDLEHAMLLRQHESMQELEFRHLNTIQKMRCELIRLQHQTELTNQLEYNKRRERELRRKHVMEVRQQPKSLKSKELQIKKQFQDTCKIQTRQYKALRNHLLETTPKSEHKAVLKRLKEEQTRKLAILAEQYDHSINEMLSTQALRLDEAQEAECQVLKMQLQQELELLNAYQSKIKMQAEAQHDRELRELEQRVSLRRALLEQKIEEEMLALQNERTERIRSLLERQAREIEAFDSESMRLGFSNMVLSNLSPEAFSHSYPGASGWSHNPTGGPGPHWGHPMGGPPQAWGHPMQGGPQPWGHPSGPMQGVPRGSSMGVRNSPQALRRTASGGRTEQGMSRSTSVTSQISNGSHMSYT

[2] = target: T2, Serine/threonine-protein kinase haspin (Homo sapiens) (UniProt Q8TF76); assay: Inhibition of human recombinant Haspin at 500 nM related to control ULK1
T2 sequence (whole entry): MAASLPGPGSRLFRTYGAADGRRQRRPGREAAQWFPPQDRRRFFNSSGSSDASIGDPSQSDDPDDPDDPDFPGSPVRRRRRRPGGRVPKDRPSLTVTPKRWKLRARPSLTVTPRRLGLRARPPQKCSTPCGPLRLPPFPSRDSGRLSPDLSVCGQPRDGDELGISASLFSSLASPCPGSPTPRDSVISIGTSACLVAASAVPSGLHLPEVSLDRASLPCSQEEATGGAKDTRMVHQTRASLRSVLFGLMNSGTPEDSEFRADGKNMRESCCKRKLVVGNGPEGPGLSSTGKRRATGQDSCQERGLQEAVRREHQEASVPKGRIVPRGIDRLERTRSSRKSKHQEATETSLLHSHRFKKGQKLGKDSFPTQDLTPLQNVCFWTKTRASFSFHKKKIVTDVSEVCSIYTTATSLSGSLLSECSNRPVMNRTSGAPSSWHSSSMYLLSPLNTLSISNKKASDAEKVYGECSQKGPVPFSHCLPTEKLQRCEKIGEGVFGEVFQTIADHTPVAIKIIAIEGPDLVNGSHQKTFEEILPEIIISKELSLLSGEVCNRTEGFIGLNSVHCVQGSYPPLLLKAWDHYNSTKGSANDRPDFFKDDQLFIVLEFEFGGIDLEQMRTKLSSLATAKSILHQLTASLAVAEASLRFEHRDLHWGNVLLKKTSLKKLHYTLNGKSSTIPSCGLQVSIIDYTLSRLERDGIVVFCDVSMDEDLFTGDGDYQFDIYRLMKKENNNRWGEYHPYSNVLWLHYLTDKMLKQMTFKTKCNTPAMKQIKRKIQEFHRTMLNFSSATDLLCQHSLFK

[3] = target: Serine/threonine-protein kinase PAK 2 (Homo sapiens) (UniProt Q13177); assay: Inhibition of human recombinant PAK2 at 500 nM related to control ULK1
[4] = target: Protein-tyrosine kinase 2-beta (Homo sapiens) (UniProt Q14289); assay: Inhibition of human recombinant PYK2 at 500 nM related to control ULK1
[5] = target: Cyclin-dependent kinase 2 (Homo sapiens) (UniProt P24941); assay: Inhibition of human recombinant CDK2 at 15 nM related to control ULK1
[6] = target: Receptor-type tyrosine-protein kinase FLT3 (Homo sapiens) (UniProt P36888); assay: Inhibition of human recombinant FLT3 at 15 nM related to control ULK1
Receptor-type tyrosine-protein kinase FLT3 (Homo sapiens), sequence (P36888 whole entry): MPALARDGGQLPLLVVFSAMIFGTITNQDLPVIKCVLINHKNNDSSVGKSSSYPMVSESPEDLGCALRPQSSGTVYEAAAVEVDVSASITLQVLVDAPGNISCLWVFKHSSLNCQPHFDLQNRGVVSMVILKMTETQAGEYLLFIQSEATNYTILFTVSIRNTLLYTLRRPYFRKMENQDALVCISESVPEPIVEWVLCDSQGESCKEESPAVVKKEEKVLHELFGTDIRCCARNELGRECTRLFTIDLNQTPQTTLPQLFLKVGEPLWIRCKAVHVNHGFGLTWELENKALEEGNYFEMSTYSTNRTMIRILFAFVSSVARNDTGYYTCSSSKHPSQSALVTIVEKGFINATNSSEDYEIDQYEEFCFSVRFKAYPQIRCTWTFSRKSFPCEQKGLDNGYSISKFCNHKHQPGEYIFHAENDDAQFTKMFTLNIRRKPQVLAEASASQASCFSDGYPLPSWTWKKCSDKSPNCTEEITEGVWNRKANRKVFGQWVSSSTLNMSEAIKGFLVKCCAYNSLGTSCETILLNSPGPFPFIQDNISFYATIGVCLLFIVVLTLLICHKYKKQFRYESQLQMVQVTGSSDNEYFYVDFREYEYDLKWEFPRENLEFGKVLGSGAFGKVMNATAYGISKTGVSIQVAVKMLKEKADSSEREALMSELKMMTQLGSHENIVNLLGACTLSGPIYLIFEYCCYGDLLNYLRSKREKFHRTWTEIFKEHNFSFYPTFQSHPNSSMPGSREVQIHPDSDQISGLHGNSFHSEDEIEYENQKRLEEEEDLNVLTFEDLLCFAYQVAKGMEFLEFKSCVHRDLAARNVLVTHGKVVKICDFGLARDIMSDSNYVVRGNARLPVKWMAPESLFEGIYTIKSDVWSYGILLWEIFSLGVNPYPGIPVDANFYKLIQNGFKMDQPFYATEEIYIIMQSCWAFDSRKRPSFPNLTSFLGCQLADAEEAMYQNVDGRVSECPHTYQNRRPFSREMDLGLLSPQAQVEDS

Serine/threonine-protein kinase PAK 2 (Homo sapiens), sequence (Q13177 whole entry): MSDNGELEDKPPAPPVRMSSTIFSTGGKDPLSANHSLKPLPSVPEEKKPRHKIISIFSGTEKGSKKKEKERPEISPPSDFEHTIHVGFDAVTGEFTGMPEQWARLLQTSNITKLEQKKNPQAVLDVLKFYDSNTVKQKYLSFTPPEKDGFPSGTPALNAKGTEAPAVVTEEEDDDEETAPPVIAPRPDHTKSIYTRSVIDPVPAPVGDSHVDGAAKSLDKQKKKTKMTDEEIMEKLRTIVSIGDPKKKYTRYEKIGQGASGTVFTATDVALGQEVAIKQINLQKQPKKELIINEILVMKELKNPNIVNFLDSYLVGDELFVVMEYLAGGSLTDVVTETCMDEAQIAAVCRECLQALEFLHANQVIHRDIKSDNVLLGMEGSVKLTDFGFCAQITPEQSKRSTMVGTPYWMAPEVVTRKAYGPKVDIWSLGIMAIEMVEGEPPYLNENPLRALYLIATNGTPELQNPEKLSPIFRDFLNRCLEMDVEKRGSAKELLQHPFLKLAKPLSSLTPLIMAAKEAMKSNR
Protein-tyrosine kinase 2-beta (Homo sapiens), sequence (Q14289 whole entry, looked up): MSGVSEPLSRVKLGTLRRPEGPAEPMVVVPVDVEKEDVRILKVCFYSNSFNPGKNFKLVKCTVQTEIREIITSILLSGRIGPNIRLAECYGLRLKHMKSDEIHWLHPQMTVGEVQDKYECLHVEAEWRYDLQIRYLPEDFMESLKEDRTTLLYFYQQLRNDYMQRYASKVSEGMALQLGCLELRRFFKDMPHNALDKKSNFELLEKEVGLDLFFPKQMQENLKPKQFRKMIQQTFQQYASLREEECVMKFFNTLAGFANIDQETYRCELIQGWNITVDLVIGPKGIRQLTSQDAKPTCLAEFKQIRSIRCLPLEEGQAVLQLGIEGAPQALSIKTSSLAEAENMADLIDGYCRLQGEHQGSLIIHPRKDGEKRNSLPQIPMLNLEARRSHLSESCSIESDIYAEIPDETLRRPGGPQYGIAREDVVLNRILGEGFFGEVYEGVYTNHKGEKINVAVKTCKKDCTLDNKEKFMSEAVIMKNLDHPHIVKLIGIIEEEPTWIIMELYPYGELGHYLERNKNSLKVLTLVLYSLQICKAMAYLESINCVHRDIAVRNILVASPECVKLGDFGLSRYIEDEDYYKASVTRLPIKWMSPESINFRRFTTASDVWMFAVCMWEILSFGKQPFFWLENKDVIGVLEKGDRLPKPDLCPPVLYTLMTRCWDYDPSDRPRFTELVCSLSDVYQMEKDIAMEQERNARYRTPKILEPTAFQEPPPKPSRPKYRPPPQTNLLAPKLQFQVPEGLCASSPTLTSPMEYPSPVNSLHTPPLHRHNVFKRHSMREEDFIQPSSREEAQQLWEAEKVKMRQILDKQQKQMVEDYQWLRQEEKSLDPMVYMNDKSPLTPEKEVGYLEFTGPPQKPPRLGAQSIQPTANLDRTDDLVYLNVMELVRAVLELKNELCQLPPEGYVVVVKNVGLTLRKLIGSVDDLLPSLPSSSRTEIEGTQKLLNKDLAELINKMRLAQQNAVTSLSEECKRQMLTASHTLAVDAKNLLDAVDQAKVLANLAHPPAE

| inhibition [1] | fold change (FC) [2] | fold change (FC) [3] | fold change (FC) [4] | fold change (FC) [5] | fold change (FC) [6] | SMILES |
| --- | --- | --- | --- | --- | --- | --- |
| 6% | 0 | 0.19 | 0.72 | – | – | CNC(=O)c1ccccc1Oc1nc(Nc2cc(OC)c(OC)c(OC)c2)ncc1Br |
| – | – | – | – | 0.01 | 0.77 | CC(C)[C@H](NC(=O)c1cc(-c2cnn3cc(-c4ccc(OCCN5CCCCC5)cc4)cnc23)cs1)C(F)(F)F |
